Assay results as given in PubChem BioAssay AID1259407 (Chemical Carcinogenesis Research Information System (CCRIS), 2018).
Active and inactive are the calls of the source. No rule for the calls is given here.

Test system: CCRIS mutagenicity, Ames/micronucleus/aberration tests
Assay: CCRIS mutagenicity studies
[1] = Test System: AMES SALMONELLA TYPHIMURIUM, Strain/Indicator: TA98, Metabolic Activation: NONE, Method: STANDARD PLATE
[2] = Test System: AMES SALMONELLA TYPHIMURIUM, Strain/Indicator: TA98, Metabolic Activation: S-9, Method: STANDARD PLATE
[3] = Test System: AMES SALMONELLA TYPHIMURIUM, Strain/Indicator: TA100, Metabolic Activation: NONE, Method: STANDARD PLATE
[4] = Test System: AMES SALMONELLA TYPHIMURIUM, Strain/Indicator: TA100, Metabolic Activation: S-9, Method: STANDARD PLATE
[5] = Test System: AMES SALMONELLA TYPHIMURIUM, Strain/Indicator: TA98, Metabolic Activation: NONE, Method: PREINCUBATION
[6] = Test System: AMES SALMONELLA TYPHIMURIUM, Strain/Indicator: TA98, Metabolic Activation: RAT, LIVER, S-9, AROCLOR 1254, Method: STANDARD PLATE
[7] = Test System: AMES SALMONELLA TYPHIMURIUM, Strain/Indicator: TA100, Metabolic Activation: NONE, Method: PREINCUBATION

For `O=[N+]([O-])c1ccc(/C=C/c2ccc([N+](=O)[O-])cc2)cc1`, the mutagenic call (Test System: AMES SALMONELLA TYPHIMURIUM, Strain/Indicator: TA98 (NR), Metabolic Activation: NONE, Method: STANDARD PLATE) was “active; positive”, the mutagenic call (Test System: AMES SALMONELLA TYPHIMURIUM, Strain/Indicator: TA98 (NR), Metabolic Activation: S-9, Method: STANDARD PLATE) was “inactive; negative” and the mutagenic call [1] was “active; positive”. The mutagenic call [2] was “active; positive”, the mutagenic call (Test System: AMES SALMONELLA TYPHIMURIUM, Strain/Indicator: TA100 (NR), Metabolic Activation: NONE, Method: STANDARD PLATE) was “inactive; negative” and the mutagenic call (Test System: AMES SALMONELLA TYPHIMURIUM, Strain/Indicator: TA100 (NR), Metabolic Activation: S-9, Method: STANDARD PLATE) was “inactive; negative”. The mutagenic call [3] was “active; positive” and the mutagenic call [4] was “active; positive”.

With `c1ccoc1` the mutagenic call (End Point: In vitro micronucleus, Test System: Human lymphocytes, Metabolic Activation: None) was “inactive; negative”, the mutagenic call (End Point: In vitro micronucleus, Test System: Human lymphocytes, Metabolic Activation: Rat, liver, S-9, Aroclor 1254) was “inactive; negative” and the mutagenic call (End Point: In vitro micronucleus, Test System: Mouse lymphoma L5178Y cells, Metabolic Activation: None) was “inactive; negative”. For the same compound, the mutagenic call (End Point: In vivo micronucleus, Test System: Peripheral blood erythrocytes, Species: Mouse, Strain/Sex: Balb/C/Male, Route: Intraperitoneal) was “inactive; negative”, the mutagenic call (End Point: In vivo micronucleus, Test System: Peripheral blood erythrocytes, Species: Mouse, Strain/Sex: Balb/C/Male, Route: Subcutaneous) was “inactive; negative” and the mutagenic call (Test System: AMES SALMONELLA TYPHIMURIUM, Strain/Indicator: TA98, Metabolic Activation: HAMSTER, LIVER, S-9, AROCLOR 1254 (10%), Method: PREINCUBATION) was “inactive; negative”. For the same compound, the mutagenic call [5] was “inactive; negative”, the mutagenic call (Test System: AMES SALMONELLA TYPHIMURIUM, Strain/Indicator: TA98, Metabolic Activation: RAT, LIVER, S-9, AROCLOR 1254 (10%), Method: PREINCUBATION) was “inactive; negative” and the mutagenic call [6] was “inactive; negative”. For the same compound, the mutagenic call [2] was “active; positive”, the mutagenic call (Test System: AMES SALMONELLA TYPHIMURIUM, Strain/Indicator: TA100, Metabolic Activation: HAMSTER, LIVER, S-9, AROCLOR 1254 (10%), Method: PREINCUBATION) was “inactive; negative” and the mutagenic call [7] was “inactive; negative”. For the same compound, the mutagenic call (Test System: AMES SALMONELLA TYPHIMURIUM, Strain/Indicator: TA100, Metabolic Activation: RAT, LIVER, S-9, AROCLOR 1254 (10%), Method: PREINCUBATION) was “inactive; negative”, the mutagenic call [4] was “inactive; negative” and the mutagenic call (Test System: AMES SALMONELLA TYPHIMURIUM, Strain/Indicator: TA1535, Metabolic Activation: HAMSTER, LIVER, S-9, AROCLOR 1254 (10%), Method: PREINCUBATION) was “inactive; negative”. For the same compound, the mutagenic call (Test System: AMES SALMONELLA TYPHIMURIUM, Strain/Indicator: TA1535, Metabolic Activation: NONE, Method: PREINCUBATION) was “inactive; negative”, the mutagenic call (Test System: AMES SALMONELLA TYPHIMURIUM, Strain/Indicator: TA1535, Metabolic Activation: RAT, LIVER, S-9, AROCLOR 1254 (10%), Method: PREINCUBATION) was “inactive; negative” and the mutagenic call (Test System: AMES SALMONELLA TYPHIMURIUM, Strain/Indicator: TA1537, Metabolic Activation: HAMSTER, LIVER, S-9, AROCLOR 1254 (10%), Method: PREINCUBATION) was “inactive; negative”. The mutagenic call (Test System: AMES SALMONELLA TYPHIMURIUM, Strain/Indicator: TA1537, Metabolic Activation: NONE, Method: PREINCUBATION) was “inactive; negative”, the mutagenic call (Test System: AMES SALMONELLA TYPHIMURIUM, Strain/Indicator: TA1537, Metabolic Activation: RAT, LIVER, S-9, AROCLOR 1254 (10%), Method: PREINCUBATION) was “inactive; negative” and the mutagenic call (Test System: Mouse lymphoma, Strain/Indicator: L5178Y (tk+/tk-), Metabolic Activation: None, Method: Preincubation) was “inactive; negative”.

In the case of `Nc1cccc2ncc(F)cc12`, the mutagenic call (Test System: AMES SALMONELLA TYPHIMURIUM, Strain/Indicator: TA100, Metabolic Activation: RAT, LIVER, S-9, PHENOBARBITAL AND 5,6-BENZOFLAVONE, Method: PREINCUBATION) is reported as “active; positive”.

`CC(C)(C)C1=CC(=O)C=C(C2=CC(=O)C=C(C(C)(C)C)C2=O)C1=O` was tested, and the mutagenic call [5] was “active; positive” and the mutagenic call [7] was “active; positive”.

In the case of `O=C1CCC(=O)N1c1cc(Cl)cc(Cl)c1`, the mutagenic call [1] is reported as “inactive; negative”, the mutagenic call [6] is reported as “inactive; negative” and the mutagenic call [3] is reported as “inactive; negative”. The mutagenic call (Test System: AMES SALMONELLA TYPHIMURIUM, Strain/Indicator: TA100, Metabolic Activation: RAT, LIVER, S-9, AROCLOR 1254, Method: STANDARD PLATE) was “inactive; negative”.

With `Oc1ccc2ccc3cc4ccccc4c4ccc1c2c34` the mutagenic call [5] was “inactive; negative”, the mutagenic call (Test System: AMES SALMONELLA TYPHIMURIUM, Strain/Indicator: TA98, Metabolic Activation: RAT, LIVER, S-9, AROCLOR 1254, Method: PREINCUBATION) was “active; positive” and the mutagenic call (Test System: AMES SALMONELLA TYPHIMURIUM, Strain/Indicator: TA98, Metabolic Activation: RAT, LUNG, S-9, Method: PREINCUBATION) was “active; positive”. The mutagenic call (Test System: CHINESE HAMSTER V-79, Strain/Indicator: V-79/8-AZAGUANINE, Metabolic Activation: NONE, Method: STANDARD PLATE) was “active; positive” and the mutagenic call (Test System: CHINESE HAMSTER V-79, Strain/Indicator: V-79/OUABAIN, Metabolic Activation: NONE, Method: STANDARD PLATE) was “active; positive”.
